Test results from patent US20140335184A1, “NANOPARTICLE ASSEMBLY, PREPARATION THEREOF, AND ACTIVE MATERIAL DELIVERING COMPOSITE COMPRISING THE SAME” (priority 2012, published 2014).

Experiment: Measurement of decrease in fluorescence of drug delivering composite
Type: physicochemical
Details: measured as a function of time, FIGS. 16A and 16B
From the text: FIGS. 16A and 16B are graphs illustrating a measurement of a decrease in a fluorescence of the drug delivering composite prepared in Example 6.
FIG. 16A is a graph illustrating the measurement of a change in fluorescence of a doxorubicin solution according to time, and FIG. 16B is a graph illustrating the measurement of changes in fluorescence of the doxorubicin solution and the drug delivering composite according to an embodiment. […] However, a reduction in fluorescence of doxorubicin alone was not observed when measured as a function of time.

Change in fluorescence: not observed
SMILES: COc1cccc2c1C(=O)c1c(O)c3c(c(O)c1C2=O)C[C@@](O)(C(=O)CO)C[C@@H]3O[C@H]1C[C@H](N)[C@H](O)[C@H](C)O1 [doxorubicin]
